{"source": "paper PMC7253177", "about": "“Gain of channel function and modified gating properties in TRPM3 mutants causing intellectual disability and epilepsy” (eLife, 2020)", "key": {"[1]": {"tested_on": "WT:V990M TRPM3 mixture", "assay": "Whole-cell patch clamp, HEK293T cells co-transfected with WT and V990M TRPM3 (1:1)", "type": "cell-based, human", "conditions": "WT:V990M 1:1; Clt 10 µM", "source_text": "(§1) Considering that all reported DEE patients were heterozygous for the TRPM3 substitutions ([Dyment et al., 2019]), and that TRPM3 is functional as a tetramer, it can be expected that patient cells express a mixture of WT and mutant channel subunits, potentially leading to the formation of heteromultimeric channels with variable stoichiometry. To mimic the heterozygous condition in vitro, we performed a limited number of experiments in cells co-transfected with a mixture of cDNA encoding WT and mutant TRPM3 in a 1:1 ratio.\n(§2) HEK293T cells ([Graham et al., 1977]) were cultured as described previously ([Vriens et al., 2007]) and used up in passage number 14. HEK293T cells were tested for the lack of mycoplasma and transiently transfected with 2 µg of DNA using TransIT transfection reagent (Mirus) 36–48 hr before the measurements. In case of co-cultures a ratio of 1:1 between hTRPM3-YFP WT and mutants-YFP DNA was used.\n(§3) Standard whole-cell patch-clamp recordings were performed with an EPC-10 amplifier and the PatchMasterPro Software (HEKA Elektronik, Lambrecht, Germany). Current measurements were performed at a sampling rate of 20 kHz and currents were digitally filtered at 2.9 kHz. In all measurements, 70% of the series resistance was compensated. […]"}, "[2]": {"tested_on": "WT:P1090Q TRPM3 mixture", "assay": "Whole-cell patch clamp, HEK293T cells co-transfected with WT and P1090Q TRPM3 (1:1)", "type": "cell-based, human", "conditions": "WT:P1090Q 1:1; Clt 10 µM, PS 40 µM", "source_text": "as §1, §2, §3"}, "[3]": {"biological_target": "T1, TRPM3 V990M mutant (Homo sapiens, UniProt Q9HCF6, V1015M)", "T1 construct": "expressed in transfected cells; host or cells: HEK293T", "T1 sequence (Q9HCF6 1-1325 isoform Q9HCF6-10 V990M)": "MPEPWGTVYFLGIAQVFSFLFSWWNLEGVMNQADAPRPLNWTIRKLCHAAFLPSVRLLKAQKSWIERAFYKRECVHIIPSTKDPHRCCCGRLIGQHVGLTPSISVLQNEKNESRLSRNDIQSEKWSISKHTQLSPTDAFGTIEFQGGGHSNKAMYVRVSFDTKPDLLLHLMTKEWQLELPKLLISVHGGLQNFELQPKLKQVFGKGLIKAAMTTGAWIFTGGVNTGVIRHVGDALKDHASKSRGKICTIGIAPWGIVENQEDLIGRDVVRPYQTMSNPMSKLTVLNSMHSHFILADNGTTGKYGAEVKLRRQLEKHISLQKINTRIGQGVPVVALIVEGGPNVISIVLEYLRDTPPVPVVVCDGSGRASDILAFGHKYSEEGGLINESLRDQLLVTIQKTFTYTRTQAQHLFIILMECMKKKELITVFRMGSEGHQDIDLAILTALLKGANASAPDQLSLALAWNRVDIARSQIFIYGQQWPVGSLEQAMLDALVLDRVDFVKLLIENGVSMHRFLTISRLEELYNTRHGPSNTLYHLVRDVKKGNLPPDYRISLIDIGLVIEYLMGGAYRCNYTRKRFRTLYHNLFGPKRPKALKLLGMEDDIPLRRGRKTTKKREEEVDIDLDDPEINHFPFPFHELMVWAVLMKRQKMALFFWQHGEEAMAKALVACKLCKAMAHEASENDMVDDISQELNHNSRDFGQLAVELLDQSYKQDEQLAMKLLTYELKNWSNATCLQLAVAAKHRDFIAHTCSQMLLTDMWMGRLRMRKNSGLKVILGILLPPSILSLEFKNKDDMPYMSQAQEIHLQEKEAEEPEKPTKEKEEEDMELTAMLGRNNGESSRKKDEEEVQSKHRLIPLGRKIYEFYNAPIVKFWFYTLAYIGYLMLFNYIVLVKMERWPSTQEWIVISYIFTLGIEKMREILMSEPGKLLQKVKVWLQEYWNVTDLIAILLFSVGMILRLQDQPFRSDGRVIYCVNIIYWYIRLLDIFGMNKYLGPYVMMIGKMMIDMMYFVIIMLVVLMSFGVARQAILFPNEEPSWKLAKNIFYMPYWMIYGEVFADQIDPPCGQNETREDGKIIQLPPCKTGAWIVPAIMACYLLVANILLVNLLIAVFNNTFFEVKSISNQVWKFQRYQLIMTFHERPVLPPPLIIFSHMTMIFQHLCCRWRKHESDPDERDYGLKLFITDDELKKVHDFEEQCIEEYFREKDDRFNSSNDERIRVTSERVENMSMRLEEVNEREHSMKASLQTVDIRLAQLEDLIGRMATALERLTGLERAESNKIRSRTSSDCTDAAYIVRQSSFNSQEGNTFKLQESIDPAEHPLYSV", "assay": "Fura-2-based calcium imaging, HEK293T cells transfected with V990M hTRPM3", "type": "cell-based", "method": "as §2\nAll mutants were obtained by the standard PCR overlap extension method using hTRPM3 directly linked to YFP from pCAGGS/IRES-GFP vector ([Vriens et al., 2007]). Accuracy of all mutant sequences was verified by sequencing of the entire DNA constructs.\nChanges in intracellular calcium concentration were monitored using ratiometric Fura-2-based fluorimetry. Cells were loaded with 2 µM Fura-2-acetoxymethyl ester (Alexis Biochemicals) for 30 min at 37°C. Fluorescence was measured during alternating illumination at 340 and 380 nm using Eclipse Ti (Nikon) fluorescence microscopy system, and absolute calcium concentration was calculated from the ratio of the fluorescence signals at these two wavelengths (R = F340/F380) as [Ca^2+]=Km × (R-Rmin)/(Rmax-R), where Km, Rmin and Rmax were estimated from in vitro calibration experiments with known calcium concentrations. The bath solution contained (in mM) 138 NaCl, 5.4 KCl, 2 CaCl2, 2 MgCl2, 10 glucose, and 10 HEPES, pH 7.4. […]"}}}
{"compound": "Clc1ccccc1C(c1ccccc1)(c1ccccc1)n1ccnc1", "note": "[Clt, clotrimazole]", "values": [{"measurement": "Activation of whole-cell currents in the absence of PS", "setting": "[1]", "value": "activated robust currents"}, {"measurement": "Effect of pre-incubation on PS responses (whole-cell currents)", "setting": "[2]", "value": "first a potentiation of the PS responses by pre-incubation of Clt, followed by a time-dependent current inhibition"}]}
{"compound": "CCC1(c2ccccc2)C(=O)NCNC1=O", "note": "[primidone]", "values": [{"measurement": "Effect on basal [Ca2+]i", "setting": "[3]; primidone 100 µM, isosakuranetin 50 µM, did not fully return to WT level", "value": "reduced [Ca^2+]i"}]}
{"compound": "pregnenolone sulfate [PS]", "values": [{"measurement": "PS concentration giving robust calcium responses (as low as)", "setting": "[3]", "value": 100, "unit": "nM"}]}
